The nature of data set [1]: Pitavastatin uptake in plated rat hepatocytes with and without rifamycin SV (positive control for transporter activity). The class given is in vitro ADME. As to conditions: male, Sprague-Dawley, rat, plated primary rat hepatocytes; pitavastatin 0.2 μM, absence of rifamycin SV, 0.5-2 min; mean (CV 24%); read-out: Unbound intrinsic uptake clearance (CLint,u). On the procedure:
(§1) Male adult Sprague-Dawley rats (Charles River, Margate, Kent, UK) were housed in groups of two in individually ventilated cages with free access to food (Chow rat and mouse diet) and fresh drinking water. The designated rat housing facility maintained a controlled temperature (20 ± 3 °C), humidity (40–70%), and 12 h light/dark cycle conditions. All animal protocols were approved by the University of Manchester review committee and adhered to the UK Home Office Animals (Scientific Procedures) Act (1986). Rats (250–300 g) were sacrificed using CO2 overdose followed by cervical dislocation in the morning of the study day. The kinetics experiment, as described below, was performed using n = 4 animals. […] Following sample preparation including addition of internal standard (Table S1), gadoxetate and pitavastatin in cell samples, and gadoxetate in media samples, were quantified by liquid chromatography–tandem mass spectrometry (LC–MS/MS). LC–MS/MS quantification was performed using selective reaction monitoring (SRM) against calibration standards; only standards within 30% of nominal concentration were included. The protein content of plated rat hepatocytes was measured using the Pierce BCA Protein Assay Kit (Thermo Fisher Scientific, Paisley, UK). […]

The test system of a further data set is plated rat hepatocytes. The description is as above. It is filed as in vitro ADME. The settings on record: 100 μM rifamycin SV; pitavastatin 0.2 μM; mean (CV 23%). How it is done:
as §1

The test system of data set [2] is active uptake transport of gadoxetate into the liver. In words: Simultaneous PBPK fitting of gadoxetate DCE-MRI data in control and rifampicin phases. It is filed as in vivo, rat. As to conditions: Rattus norvegicus. On the procedure:
DCE–MRI data generated using the 3D Fast Low Angle Shot RF-spoiled gradient echo sequence (FLASH) protocol in male Wistar-Han rats were used for assessing the PBPK IVIVE performances and for obtaining some of the PBPK parameters within the bottom-up and top-down approaches, respectively. The DCE–MRI data were acquired in a multicenter study at two magnetic field strengths, 4.7 and 7 T. Gadoxetate was administered at a dose of 25 μmol/kg, either alone or 1 h after IV administration of 10 mg/kg rifampicin. When gadoxetate was administered alone (control arm), 43 profiles of blood, spleen, and liver measured at a field strength of 4.7 T and 52 profiles of blood, spleen, and liver measured at 7 T were available. In the case of gadoxetate administered with rifampicin, 7 blood, spleen, and liver profiles at a field strength equal to 4.7 T and 6 at 7 T were available. All gadoxetate DCE–MRI data and study protocols are detailed in a companion paper (Hines et al. in submission).
The DCE–MRI data used in this study were reported as ΔR1. Therefore, the relationship between the compartmental concentrations represented by the PBPK model state variables and the ΔR1 measurements for the blood, liver, and spleen needed to be described. The linear relationship in eq 4 is not valid for ΔR1 of the liver, ΔR1,liv, because intracellular and extracellular tissue compartments have different relaxivities. To derive ΔR1,liv, a volume fraction-weighted mean of the contributions of the gadoxetate concentration in all the compartments used to model the liver was performed.[40] In the spleen, the entire distribution space was supposed to have the same relaxivity as blood and, therefore, eq 4 can be applied directly to derive spleen concentrations from ΔR1,spl. Concerning the blood, the blood value for r1 in Table 1 allows ΔR1,b to be directly related to the blood concentration. The relations between ΔR1,liv, ΔR1,spl, and ΔR1,b and the concentrations of the PBPK compartments are shown in eq 7. [drawing 7] 7 cspl,extr is the extracellular concentration in the spleen and Vspl,extr is the extracellular volume of the spleen and Vliv and Vspl are the whole volumes of liver and spleen. r1,liv,extr and r1,spl,extr were assumed to be equal to r1,b, as described in Hines et al.
In fact, each of the data are acquired during a time interval Δt, which was 57 s in the current dataset. To account for this characteristic when performing the parameter estimation, the residuals were calculated as the difference of the observed ΔR1 corresponding to a given time interval minus the mean of the simulated PBPK ΔR1 within the same interval, as explained in the Supporting Information, Section 4.
The extent of interaction with rifampicin was estimated by performing a simultaneous fitting of gadoxetate ΔR1 in the control and inhibitory phase. In this analysis, PS was considered the same for both phases, whereas the other parameters were separately estimated in the absence (CLactive and CLbiliary) and in the presence of rifampicin (CLactive,inh and CLbiliary,inh). CLbiliary,inh was considered to account for possible inhibition of Mrp2 in rat by rifampicin, as previously reported.[45] To understand the impact of the inclusion of the liver-imaging data on the parameter optimization, the simultaneous estimation was also performed considering only the blood data.
All the PBPK analyses were performed in MATLAB R2020a,[50] the ordinary differential equations were solved with the function “ode15s”, while the parameter optimization was performed with the function “lsqnonlin”. The uncertainty of the parameters estimate was evaluated with the case-bootstrap,[51] using 1000 samples.

Like-named read-outs stand apart in the source and are kept apart here.

On to `O=C(O)C[C@H](O)C[C@H](O)/C=C/c1c(C2CC2)nc2ccccc2c1-c1ccc(F)cc1` [pitavastatin], for which the hepatocyte CLint at 0.2 μM in data set [1] turned out to be 95.7 µL/min/1e6 cells.

Regarding `CO[C@H]1/C=C/O[C@@]2(C)Oc3c(C)c(O)c4c(O)c(cc(O)c4c3C2=O)NC(=O)/C(C)=C\C=C\[C@H](C)[C@H](O)[C@@H](C)[C@@H](O)[C@@H](C)[C@H](OC(C)=O)[C@@H]1C` [rifamycin SV], the “reduction of the uptake of pitavastatin” value in the data set with plated rat hepatocytes was 54%.

Take `CO[C@H]1/C=C/O[C@@]2(C)Oc3c(C)c(O)c4c(O)c(c(/C=N/N5CCN(C)CC5)c(O)c4c3C2=O)NC(=O)/C(C)=C\C=C\[C@H](C)[C@H](O)[C@@H](C)[C@@H](O)[C@@H](C)[C@H](OC(C)=O)[C@@H]1C` [rifampicin]: the inhibition (usually the change of the read-out against control, counted positive when it falls) at 10 mg/kg worked out at 96% in data set [2] (iv, rifampicin i.v. 10 mg/kg, fit with blood, spleen and liver data, read-out: inhibition of gadoxetate CLactive (active uptake into the liver)); 84% in data set [2] (rifampicin 10 mg/kg, only blood ΔR1 profiles (without liver data), read-out: inhibition of gadoxetate CLactive, blood ΔR1 only).

The record behind these values is publication PMC8397403, “Physiologically Based Pharmacokinetic Modeling of Transporter-Mediated Hepatic Disposition of Imaging Biomarker Gadoxetate in Rats” (Molecular Pharmaceutics, 2021).
